Data: patent US20070264372A1, “Cosmetic or pharmaceutical product for external use based on papaya” (priority 2006, published 2007)

Test system: skin of the volunteers (volar surface of the forearm)
Experiment: Keratolytic activity: desquamation index after occlusive Finn chamber application, Protocol c)
Format: in vivo, human
Experimental: Under Protocol c) a study was carried out aimed to evaluate the Keratolytic activity of a raw, fermented papaya material for cosmetic use. The study was carried out according to a double-blinded protocol with randomisation of the application sites. Under the test, irritating products were applied to the skin of the volunteers by means of an occlusive chamber (Finn chamber, Ø 7.0 mm) containing a disc of absorbing paper wetted with a known quantity (20 μl) of product. The exposure time to the irritating product (Salicylic acid at 1.5, 3.0 and 5.0% (w/v) concentration) was 3 and 6 hours. The application site of the irritating products selected for study purposes was the volar surface of the forearm. The products were applied on the skin of the volunteers for 3 and 6 hours. • b) desquamation index on the images acquired with Comeofix® tape and Visioscan® (Courage+Khazaka electronic GmbH). Desquamation index was calculated as: DI=[2A+(T1·(1−1)+T2·(2−1)+ . . . +Tn·(n−1)]/(n+1) • The variation was calculated as: [formula] I.D. [X]0: Basal desquamation index; I.D. [X]x: Desquamation index at the x concentration (1.5, 3.0 and 5.0%) of fermented papaya or salicylic acid.

Which results are given for `O=C(O)c1ccccc1O` [SALICYLIC ACID, Salicylic acid]?
Variation of desquamation index (1.5% solution, 3 h application): 2.58 ± 0.24; Variation of desquamation index (1.5% solution, 6 h application): 2.71 ± 0.36; Variation of desquamation index (3.0% solution, 3 h application): 3.12 ± 0.24; Variation of desquamation index (3.0% solution, 6 h application): 3.24 ± 0.38; Variation of desquamation index (5.0% solution, 3 h application): 3.25 ± 0.26; Variation of desquamation index (5.0% solution, 6 h application): 3.59 ± 0.43; change of desquamation index (both after 3.0 and 6.0 hours of application, result in words): increase; application time at which the maximum keratolytic action was reached (statistical analysis): 3 h; concentration at which the maximum keratolytic action was reached (statistical analysis): 3.0%
